One assay relates to myostatin. As to the kind of experiment: Acute denervation: myostatin mRNA in EDL and soleus (qPCR). In kind it is in vivo, rat. As for the experimental part:
Male Wistar rats weighing 250 gm (Taconic Farms, Germantown, N.Y.) were provided food and water ad libitum and were housed in a temperature and humidity controlled environment providing a 12:12 hour day-night cycle. For surgical procedures, animals were anesthetized with ketamine/xylazine. The left sciatic nerve was exposed by blunt dissection, and a 1 to 2 mm piece of this nerve was excised just below the level of the femoral head. A sham surgery was performed on the right hind limb in which the sciatic nerve was exposed but was not transected. Model 2002 Alzet pumps were implanted subcutaneously on the back. […] A pellet containing 15 mg of testosterone (Innovative Research of America, Sarasota, Fla.) administered as a continuous infusion (5 mg/wk), or a pellet containing placebo, was inserted into a subcutaneous pouch. […] Because testosterone is known to have anabolic actions (Ferrando et al., Am J Physiol Endocrinol Metab 282: E601-E607, 2002; Mauras et al., J Clin Endocrinol Metab 83: 1886-1892, 1998; Urban et al., Am J Physiol 269: E820-E826, 1995), reductions in levels of this hormone could affect muscle mass and confound interpretation of the results. Animals were euthanized 14 days later by inhalation of carbon dioxide. […]
Total RNA was extracted from skeletal muscle (20 mg) by homogenization in guanidine thiocyanate using a Polytron followed by extraction using phenol-chloroform (Chomczynski and Sacchi, Anal Biochem 162: 156-159, 1987). […] Total RNA was then eluted and quantified by absorbance at 260 nm. […] Levels of gene expression in the denervated muscle were expressed as fold induction relative to muscle from the sham-denervated leg of animals administered vehicle. […] Fold-induction was determined using the 2^−ΔΔCt method, using expression of 18S RNA as the normalization control. […]

In another assay the test system is GADD45. As to the kind of experiment: Chronic denervation: GADD45 mRNA in gastrocnemius (qPCR). In kind it is in vivo, rat. As for the experimental part: Male Wistar rats weighing 200-250 gm (Taconic Farms, Germantown, N.Y.) were provided food and water ad libitum and were housed in a temperature and humidity controlled environment providing a 12:12 hour day-night cycle. For surgical procedures, animals were anesthetized with ketamine/xylazine. The left sciatic nerve was exposed by blunt dissection, and a 1 to 2 mm piece of this nerve was excised just below the level of the femoral head. A sham surgery was performed on the right hind limb in which the sciatic nerve was exposed but was not transected. Twenty eight days later, animals were anesthetized, and Alzet pumps were implanted subcutaneously on the back. […] Testosterone levels after replacement were approximately 15 nM, a high-normal range for rats of this age. Animals were sacrificed 3, 7 or 28 days after implantation of the miniosmotic pumps by inhalation of carbon dioxide. Gastrocnemius muscles were excised and weighed, then flash frozen on dry ice and stored at −80° C.
Total RNA was extracted from skeletal muscle (20 mg) by homogenization in guanidine thiocyanate using a Polytron followed by extraction of total RNA with phenol-chloroform as described by (Chomczynski and Sacchi, Anal Biochem 162: 156-159, 1987). Total RNA was further enriched using RNAeasy minicolumns (Qiagen, Valencia, Calif.). This procedure included digestion of contaminating DNA on the column with RNAse-free DNAse (Qiagen). Total RNA was eluted and quantified by absorbance at 260 nm. One μg of total RNA was used to prepare a cDNA library by reverse transcription (High Capacity cDNA Archive Kit, Applied Biosystems). Libraries were diluted 25-fold with water. Real time PCR was performed Taqman 2×PCR buffer (Applied Biosystems) using an Applied Biosystems 7500 thermocycler. Levels of gene expression in the denervated muscle were expressed as fold induction relative to muscle from the sham-denervated leg of animals administered vehicle. […] Fold-induction was determined using the 2^−ΔΔCt method, using expression of 18S RNA as the normalization control. […]
A general note: Real-time PCR tracks product formation cycle by cycle.

Assay [1] in a line: Acute denervation (0-14 days): muscle weights. In kind it is in vivo. The following applies: rat. As to the method: Male Wistar rats weighing 250 gm (Taconic Farms, Germantown, N.Y.) were provided food and water ad libitum and were housed in a temperature and humidity controlled environment providing a 12:12 hour day-night cycle. For surgical procedures, animals were anesthetized with ketamine/xylazine. The left sciatic nerve was exposed by blunt dissection, and a 1 to 2 mm piece of this nerve was excised just below the level of the femoral head. A sham surgery was performed on the right hind limb in which the sciatic nerve was exposed but was not transected. Model 2002 Alzet pumps were implanted subcutaneously on the back. […] A pellet containing 15 mg of testosterone (Innovative Research of America, Sarasota, Fla.) administered as a continuous infusion (5 mg/wk), or a pellet containing placebo, was inserted into a subcutaneous pouch. […] Because testosterone is known to have anabolic actions (Ferrando et al., Am J Physiol Endocrinol Metab 282: E601-E607, 2002; Mauras et al., J Clin Endocrinol Metab 83: 1886-1892, 1998; Urban et al., Am J Physiol 269: E820-E826, 1995), reductions in levels of this hormone could affect muscle mass and confound interpretation of the results. Animals were euthanized 14 days later by inhalation of carbon dioxide. Following removal of blood from the left ventricle for determination of serum testosterone concentration by radioimmunoassay (MP Biomedicals, Costa Mesa, Calif.), soleus, extensor digitorum longus (EDL), gastrocnemius and plantaris muscles were excised and weighed, then were flash frozen on dry ice and stored at −80° C.

The record followed here is patent US7429482B2, “Screening tools for discovery of novel anabolic agents” (United States of America as represented by the Department …, priority 2005, dated 2008).

As to `C[C@]12CC[C@H]3[C@@H](CCC4=CC(=O)CC[C@@H]43)[C@@H]1CC[C@@H]2O` [nandrolone], the myostatin expression entry was “appeared to reduce” in the assay on myostatin (denervated EDL), “significantly reduced” in the assay with myostatin (sham-denervated EDL) and “did not appreciably alter” with myostatin (soleus). For the same compound, the GADD45 expression entry in the assay on GADD45 (denervated muscle, after 3 and 7-days, not significant) is “tended to reduce”; in the assay with GADD45 (sham-denervated muscle) it was “no appreciable effect”. Further, the “effect on GADD45 expression” value in the assay with GADD45 (denervated muscle, after 28-days infusion) is listed as “lost”. For the same compound, the “weights of muscles from sham-transected limbs” value in assay [1] (nandrolone 1.5 mg/kg/wk 14 days + testosterone replacement, not statistically significant) was “tended to be increased”. Besides, the “weights of muscles from the denervated limb versus vehicle” value in assay [1] (nandrolone 1.5 mg/kg/wk, 14 days after sciatic transection) is “not significantly different”. Further, the effect on atrophy result in assay [1] (nandrolone 7.5 or 37.5 mg/kg/week, same protocol) was “No effect”.
